Test results: US20070049564A1 (Wyeth, priority 2005, published 2007)
Values after ≈ are worked out from the molar mass of the structure shown.

Tests used:
Experiment in all cases: MIC, broth microdilution
E. coli GC 2271 = settings: Escherichia coli
E. coli GC 2233 = settings: Escherichia coli
E. coli GC 1073 = settings: Escherichia coli
E. coli GC 6465 = settings: Escherichia coli
S. pyogenes GC 4563 = settings: Streptococcus pyogenes
S. aureus GC 6466 = settings: Staphylococcus aureus
E. faecium GC 4556 = settings: Enterococcus faecium
S. typhimurium GC 2172 = settings: Salmonella enterica, TYPHIMURIUM
Experimental: (§1) Antimicrobial susceptibility testing. The in vitro activities of the antibiotics are determined by the broth microdilution method as recommended by the National Committee for Clinical Laboratory Standards (NCCLS) (1). Mueller-Hinton II broth (MHBII)(BBL Cockeysville, Md.) is the medium employed in the testing procedures. Microtiter plates containing serial dilutions of each antimicrobial agent are inoculated with each organism to yield the appropriate density (10^5 CFU/ml) in a 100 μl final volume. The plates are incubated for 18-22 hours at 35° C. in ambient air.
Representative compounds were first incubated in mouse serum for an hour prior to the in vitro testing against a panel of selected gram-positive and gram-negative bacteria strains. All compounds were also pre-incubated in water for an hour prior to testing as control.

E. coli GC 2270 = settings: Escherichia coli
E. coli GC 3226 = settings: Escherichia coli
E. coli GC 2234 = settings: Escherichia coli
E. coli GC 4560 = settings: Escherichia coli
S. aureus GC 1079 = settings: Staphylococcus aureus
E. coli GC 2235 = settings: Escherichia coli
E. coli GC 2203 = settings: Escherichia coli
S. aureus GC 6469 = settings: Staphylococcus aureus
E. coli GC 4559 = settings: Escherichia coli
S. aureus GC 6335 = settings: Staphylococcus aureus
Experimental: as §1
Representative compounds were first incubated in mouse serum for an hour prior to the in vitro testing against a panel of selected gram-positive and gram-negative bacteria strains. All compounds were also pre-incubated in water for an hour prior to testing as control. Representative compounds of Formula I were incubated in human serum prior to MIC determination.

S. agalactiae GC 4564 = settings: Streptococcus agalactiae
S. aureus GC 6467 = settings: Staphylococcus aureus

`CCCCC(=O)OCOC(=O)N(CC(=O)Nc1cc(N(C)C)c2c(c1O)C(=O)C1=C(O)[C@]3(O)C(=O)C(C(N)=O)=C(O)[C@@H](N(C)C)[C@@H]3C[C@@H]1C2)C(C)(C)C` [Example 61, ({[(2-{[(5aR,6aS,7S,10aS)-9-(aminocarbonyl)-4,7-bis(dimethylamino)-1,8,10a,11-tetrahydroxy-10,12-dioxo-5,5a,6,6a,7,10,10a,12-octahydrotetracen-2-yl]amino}-2-oxoethyl)(tert-butyl)amino]carbonyl}oxy)methyl pentanoate] showed an MIC (E. coli GC 2271; GC2271, pre-incubation in human serum) of 4 µg/mL (≈ 5.38 µM), an MIC (E. coli GC 2271; GC2271, pre-incubation in mouse serum) of 0.5 µg/mL (≈ 0.672 µM) and an MIC (E. coli GC 2271; GC2271, pre-incubation in water) of 16 µg/mL (≈ 21.5 µM). The MIC (E. coli GC 2233; GC2233, pre-incubation in human serum) was 8 µg/mL (≈ 10.8 µM), the MIC (E. coli GC 2233; GC2233, pre-incubation in mouse serum) was 1 µg/mL (≈ 1.34 µM) and the MIC (E. coli GC 2233; GC2233, pre-incubation in water) was 16 µg/mL (≈ 21.5 µM). For the same compound, the MIC (E. coli GC 1073; GC1073, pre-incubation in human serum) was 8 µg/mL (≈ 10.8 µM), the MIC (E. coli GC 1073; GC1073, pre-incubation in mouse serum) was 0.5 µg/mL (≈ 0.672 µM) and the MIC (E. coli GC 1073; GC1073, pre-incubation in water) was 32 µg/mL (≈ 43 µM). The MIC (E. coli GC 6465; GC6465, pre-incubation in human serum) was 32 µg/mL (≈ 43 µM), the MIC (E. coli GC 6465; GC6465, pre-incubation in mouse serum) was 1 µg/mL (≈ 1.34 µM) and the MIC (E. coli GC 6465; GC6465, pre-incubation in water) was over 64 µg/mL. It also gave an MIC (S. pyogenes GC 4563; GC4563, pre-incubation in human serum) of 0.25 µg/mL (≈ 0.336 µM), an MIC (S. pyogenes GC 4563; GC4563, pre-incubation in mouse serum) of 0.25 µg/mL (≈ 0.336 µM) and an MIC (S. pyogenes GC 4563; GC4563, pre-incubation in water) of 0.5 µg/mL (≈ 0.672 µM). It also gave an MIC (S. aureus GC 6466; GC6466, pre-incubation in human serum) of 0.5 µg/mL (≈ 0.672 µM), an MIC (S. aureus GC 6466; GC6466, pre-incubation in mouse serum) of 0.5 µg/mL (≈ 0.672 µM) and an MIC (S. aureus GC 6466; GC6466, pre-incubation in water) of 0.5 µg/mL (≈ 0.672 µM). It also gave an MIC (E. faecium GC 4556; GC4556, pre-incubation in human serum) of 2 µg/mL (≈ 2.69 µM), an MIC (E. faecium GC 4556; GC4556, pre-incubation in mouse serum) of 0.5 µg/mL (≈ 0.672 µM) and an MIC (E. faecium GC 4556; GC4556, pre-incubation in water) of 2 µg/mL (≈ 2.69 µM). It also gave an MIC (S. typhimurium GC 2172; pre-incubation in human serum) of 64 µg/mL (≈ 86 µM), an MIC (S. typhimurium GC 2172; pre-incubation in mouse serum) of 1 µg/mL (≈ 1.34 µM) and an MIC (S. typhimurium GC 2172; pre-incubation in water) of over 64 µg/mL. The MIC (E. coli GC 2270; GC2270, pre-incubation in human serum) was 4 µg/mL (≈ 5.38 µM), the MIC (E. coli GC 2270; GC2270, pre-incubation in mouse serum) was 0.5 µg/mL (≈ 0.672 µM) and the MIC (E. coli GC 2270; GC2270, pre-incubation in water) was 16 µg/mL (≈ 21.5 µM). The MIC (E. coli GC 3226; GC3226, pre-incubation in human serum) was 8 µg/mL (≈ 10.8 µM), the MIC (E. coli GC 3226; GC3226, pre-incubation in mouse serum) was 0.5 µg/mL (≈ 0.672 µM) and the MIC (E. coli GC 3226; GC3226, pre-incubation in water) was 32 µg/mL (≈ 43 µM). The MIC (E. coli GC 2234; GC2234, pre-incubation in human serum) was 8 µg/mL (≈ 10.8 µM), the MIC (E. coli GC 2234; GC2234, pre-incubation in mouse serum) was 0.5 µg/mL (≈ 0.672 µM) and the MIC (E. coli GC 2234; GC2234, pre-incubation in water) was 16 µg/mL (≈ 21.5 µM). It also gave an MIC (E. coli GC 4560; GC4560, pre-incubation in human serum) of 1 µg/mL (≈ 1.34 µM), an MIC (E. coli GC 4560; GC4560, pre-incubation in mouse serum) of 0.25 µg/mL (≈ 0.336 µM) and an MIC (E. coli GC 4560; GC4560, pre-incubation in water) of 1 µg/mL (≈ 1.34 µM). The MIC (S. aureus GC 1079; GC1079, pre-incubation in human serum) was 0.5 µg/mL (≈ 0.672 µM), the MIC (S. aureus GC 1079; GC1079, pre-incubation in mouse serum) was 0.25 µg/mL (≈ 0.336 µM) and the MIC (S. aureus GC 1079; GC1079, pre-incubation in water) was 1 µg/mL (≈ 1.34 µM). For the same compound, the MIC (E. coli GC 2235; GC2235, pre-incubation in human serum) was 4 µg/mL (≈ 5.38 µM), the MIC (E. coli GC 2235; GC2235, pre-incubation in mouse serum) was 0.5 µg/mL (≈ 0.672 µM) and the MIC (E. coli GC 2235; GC2235, pre-incubation in water) was 16 µg/mL (≈ 21.5 µM). The MIC (E. coli GC 2203; GC2203, pre-incubation in human serum) was 8 µg/mL (≈ 10.8 µM), the MIC (E. coli GC 2203; GC2203, pre-incubation in mouse serum) was 0.5 µg/mL (≈ 0.672 µM) and the MIC (E. coli GC 2203; GC2203, pre-incubation in water) was 32 µg/mL (≈ 43 µM). The MIC (S. aureus GC 6469; GC6469, pre-incubation in human serum) was 0.5 µg/mL (≈ 0.672 µM), the MIC (S. aureus GC 6469; GC6469, pre-incubation in mouse serum) was 0.5 µg/mL (≈ 0.672 µM) and the MIC (S. aureus GC 6469; GC6469, pre-incubation in water) was 2 µg/mL (≈ 2.69 µM). For the same compound, the MIC (E. coli GC 4559; GC4559, pre-incubation in human serum) was 8 µg/mL (≈ 10.8 µM), the MIC (E. coli GC 4559; GC4559, pre-incubation in mouse serum) was 1 µg/mL (≈ 1.34 µM) and the MIC (E. coli GC 4559; GC4559, pre-incubation in water) was 64 µg/mL (≈ 86 µM). For the same compound, the MIC (S. aureus GC 6335; GC6335, pre-incubation in human serum) was 1 µg/mL (≈ 1.34 µM), the MIC (S. aureus GC 6335; GC6335, pre-incubation in mouse serum) was 0.5 µg/mL (≈ 0.672 µM) and the MIC (S. aureus GC 6335; GC6335, pre-incubation in water) was 1 µg/mL (≈ 1.34 µM). It also gave an MIC (S. agalactiae GC 4564; GC4564, pre-incubation in human serum) of 0.5 µg/mL (≈ 0.672 µM), an MIC (S. agalactiae GC 4564; GC4564, pre-incubation in mouse serum) of 0.25 µg/mL (≈ 0.336 µM) and an MIC (S. agalactiae GC 4564; GC4564, pre-incubation in water) of 0.25 µg/mL (≈ 0.336 µM). It also gave an MIC (S. aureus GC 6467; GC6467, pre-incubation in human serum) of 0.5 µg/mL (≈ 0.672 µM), an MIC (S. aureus GC 6467; GC6467, pre-incubation in mouse serum) of 0.5 µg/mL (≈ 0.672 µM) and an MIC (S. aureus GC 6467; GC6467, pre-incubation in water) of 1 µg/mL (≈ 1.34 µM).
